# Experimental data published in PMC7521041 (Current Genomics, 2020).
# Target: T1, Alr0765 (Nostoc sp. PCC 7120 = FACHB-418, UniProt A0ACD7RPC9)
# T1 sequence (A0ACD7RPC9 1-204): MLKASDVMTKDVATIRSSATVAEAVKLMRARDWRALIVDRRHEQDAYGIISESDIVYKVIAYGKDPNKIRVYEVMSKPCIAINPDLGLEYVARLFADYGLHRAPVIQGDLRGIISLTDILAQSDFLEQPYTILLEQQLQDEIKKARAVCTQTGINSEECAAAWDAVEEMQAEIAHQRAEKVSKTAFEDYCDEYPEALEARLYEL
# Test: FTIR amide I conformational change
# Type: binding
# Conditions: 3 mM ligand, 1.3 mM protein, pH 8.0, 25 C
row,SMILES,FTIR amide I conformational change
1,Nc1ncnc2c1ncn2[C@@H]1O[C@H](COP(=O)(O)O)[C@@H](O)[C@H]1O [AMP],"Alr0765 binds with adenosyl ligands, which led to conformational changes"
2,Nc1ncnc2c1ncn2[C@@H]1O[C@H](COP(=O)(O)OP(=O)(O)O)[C@@H](O)[C@H]1O [ADP],"Alr0765 binds with adenosyl ligands, which led to conformational changes"
3,NC(=O)C1=CN([C@@H]2O[C@H](COP(=O)(O)OP(=O)(O)OC[C@H]3O[C@@H](n4cnc5c(N)ncnc54)[C@H](O)[C@@H]3O)[C@@H](O)[C@H]2O)C=CC1 [NADH],"Alr0765 binds with adenosyl ligands, which led to conformational changes"
